Measured values from patent publication US8071290B2, “Hypermethylation of GATA-4 and GATA-5 transcription factor genes in cancer” (Johns Hopkins University School of Medicine, priority 2003, dated 2011).
Marks after values point to notes of the source that are not given here.

How the values were obtained:
Type in all cases: cell-based, human
[1] = system: AZ521 gastric cancer cell line; test: DAC treatment, gene expression by RT-PCR in AZ521; set-up: key to GATA-4 expression (Exp, A = DAC treatment) / GATA-5 expression (Exp, A = DAC treatment) / GATA-6 expression (Exp, A = DAC treatment) / TFF1 expression (Exp, A = DAC treatment) / TFF2 expression (Exp, A = DAC treatment) / TFF3 expression (Exp, A = DAC treatment) / Inhibin α expression (Exp, A = DAC treatment) / Dab2 expression (Exp, A = DAC treatment): −: Undetectable level; +: detectable level of expression, by RT-PCR; ++: increased expression level from +basal level
Experimental: (§1) The CRC and Az521 cell lines were grown in DMEM, MEM or McCoy's medium supplemented with 10% fetal bovine serum, penicillin and streptomycin. For demethylation studies, cells were treated daily with […] 5-aza-2′deoxycytidine (DAC; Sigma Chemical Co.; St. Louis Mo.) for 48 hr (41). Az521 and HCT116 cells also were treated with the histone deacetylase inhibitor, TSA (Wako), alone, or with a combination of DAC plus TSA (41; 6). Total RNA was isolated using the TRIZOL reagent (Invitrogen Corp.; Carlsbad Calif.).
(§2) For RT-PCR, 2 μg of total RNA was reverse transcribed using the SUPERSCRIPT reverse transcription kit (Invitrogen); all genes were amplified with multiple cycle numbers (28-35 cycles) for obtaining semi-quantitative differences in their expression levels. Primer pairs for GATA-1 to GATA-6 and for the GATA-5 target genes are shown in Table 2 (see, also, Bai et al., Mol. Carcinog. 28:184-188, 2000, which is incorporated herein by reference). Annealing was performed at the indicated temperatures, and PCR was performed for the indicated number of cycles (Table 2, below). PCR conditions were as follows: first denature, 95° C., 5 min; denature, 95° C., 1 min; anneal, temperature shown in Table 2 (° C.), 1 min; extension, 72° C., 1 min; final extension, 72° C., 10 min.
(§3) GATA-4, GATA-5and GATA-6 expression was examined in gastrointestinal cancer cell lines. GATA-4, GATA-5 and GATA-6 expression levels were examined by RT-PCR in seven cancer cell lines (colon cancer cell lines RKO, DLD1, HCT116, HT29, LoVo, and SW480; and gastric cancer cell line AZ521) with or without (mock) treatment with 5′-aza-2′-deoxycytidine (DAC) and in normal colonic mucosa (NC) and peripheral blood lymphocytes (PBL). GAPDH expression was used for an internal loading control for the RT-PCR. Gastric cancer cells, AZ521, were treated with low dose DAC alone, TSA alone, or a combination of these two drugs (A/T), or were mock treated, and examined by RT-PCR. GATA-4 and GATA-5 expression were examined in wild type (WT) HCT116 colon cancer cells, and two clones each of these cells in which both alleles of DNA methyltransferase 1 (DNMTI-KO), DNMT 3b (DNMT3b-KO), or both DNMTs were knocked out (21). PCR products recognizing unmethylated and methylated CpG sites were analyzed in 2.5% agarose gels stained by ethidium bromide.

[2] = system: RKO colon cancer cell line; test: DAC treatment, gene expression by RT-PCR in RKO; set-up: key to GATA-5 expression (Exp, A = DAC treatment) / GATA-6 expression (Exp, A = DAC treatment) / TFF1 expression (Exp, A = DAC treatment) / TFF2 expression (Exp, A = DAC treatment) / TFF3 expression (Exp, A = DAC treatment) / Inhibin α expression (Exp, A = DAC treatment) / Dab2 expression (Exp, A = DAC treatment) / GATA-4 expression (Exp, A = DAC treatment): −: Undetectable level; +: detectable level of expression, by RT-PCR; ++: increased expression level from +basal level
Experimental: as §1, §2, §3

[3] = system: HT29 colon cancer cell line; test: DAC treatment, gene expression by RT-PCR in HT29; set-up: key: −: Undetectable level; +: detectable level of expression, by RT-PCR; ++: increased expression level from +basal level; conditions: 5 pM DAC daily for 48 hr
Experimental: as §1, §2, §3

[4] = system: HCT116 colon cancer cell line; test: DAC treatment, gene expression by RT-PCR in HCT116; set-up: key to GATA-5 expression (Exp, A = DAC treatment) / GATA-6 expression (Exp, A = DAC treatment) / TFF1 expression (Exp, A = DAC treatment) / TFF2 expression (Exp, A = DAC treatment) / TFF3 expression (Exp, A = DAC treatment) / Inhibin α expression (Exp, A = DAC treatment) / Dab2 expression (Exp, A = DAC treatment) / GATA-4 expression (Exp, A = DAC treatment): −: Undetectable level; +: detectable level of expression, by RT-PCR; ++: increased expression level from +basal level
Experimental: as §1, §2, §3

[5] = system: DLD1 colon cancer cell line; test: DAC treatment, gene expression by RT-PCR in DLD1; set-up: key: −: Undetectable level; +: detectable level of expression, by RT-PCR; ++: increased expression level from +basal level; conditions: 5 pM DAC daily for 48 hr
Experimental: as §1, §2, §3

[6] = system: LoVo colon cancer cell line; test: DAC treatment, gene expression by RT-PCR in LoVo; set-up: key: −: Undetectable level; +: detectable level of expression, by RT-PCR; ++: increased expression level from +basal level; conditions: 5 pM DAC daily for 48 hr
Experimental: as §1, §2, §3

[7] = system: colon cancer cell lines RKO, DLD1, HCT116, HT29, LoVo, and SW480; and gastric cancer cell line AZ521; test: DAC treatment of the seven cancer cell lines, RT-PCR
Experimental: as §1, §2
as §3, with “GATA-4 and GATA-5 expression were examined in wild type (WT) HCT116 colon cancer cells, and two clones each of these cells in which both alleles of DNA methyltransferase 1 (DNMTI-KO), DNMT 3b (DNMT3b-KO), or both DNMTs were knocked out (21).” left out

[8] = system: SW480 colon cancer cell line; test: DAC treatment, gene expression by RT-PCR in SW480; set-up: key: −: Undetectable level; +: detectable level of expression, by RT-PCR; ++: increased expression level from +basal level; conditions: 5 pM DAC daily for 48 hr
Experimental: as §1, §2, §3

[9] = system: Gastric cancer cells, AZ521; test: TSA alone or low dose DAC plus TSA, RT-PCR of GATA-4 and GATA-5
Experimental: as §1
For RT-PCR, 2 μg of total RNA was reverse transcribed using the SUPERSCRIPT reverse transcription kit (Invitrogen); all genes were amplified with multiple cycle numbers (28-35 cycles) for obtaining semi-quantitative differences in their expression levels. Primer pairs for GATA-1 to GATA-6 and for the GATA-5 target genes are shown in Table 2 (see, also, Bai et al., Mol. Carcinog. 28:184-188, 2000, which is incorporated herein by reference). Annealing was performed at the indicated temperatures, and PCR was performed for the indicated number of cycles (Table 2, below). […]
GATA-4, GATA-5and GATA-6 expression was examined in gastrointestinal cancer cell lines. […] PCR products recognizing unmethylated and methylated CpG sites were analyzed in 2.5% agarose gels stained by ethidium bromide.

[10] = AZ521, 5 pM DAC daily for 48 hr, RT-PCR
[11] = 5 pM DAC daily for 48 hr, RT-PCR
[12] = HCT116, 5 pM DAC daily for 48 hr, RT-PCR

Nc1ncn([C@H]2C[C@H](O)[C@@H](CO)O2)c(=O)n1 [DAC, 5-aza-2′-deoxycytidine]
Dab2 expression (Exp, A = DAC treatment) [1, 10]: + | GATA-4 expression (Exp, A = DAC treatment) [1, 10]: + | GATA-5 expression (Exp, A = DAC treatment) [1, 10]: + | GATA-6 expression (Exp, A = DAC treatment) [1, 10]: + | Inhibin α expression (Exp, A = DAC treatment) [1, 10]: ++ | TFF1 expression (Exp, A = DAC treatment) [1, 10]: + | TFF2 expression (Exp, A = DAC treatment) [1, 10]: − | TFF3 expression (Exp, A = DAC treatment) [1, 10]: + | TFF2 re-expression after DAC treatment ([1]; Az521): did not re-express | TFF2 re-expression after DAC treatment [2]: did not re-express | Dab2 expression (Exp, A = DAC treatment) [2, 11]: + | GATA-4 expression (Exp, A = DAC treatment) [2, 11]: + | GATA-5 expression (Exp, A = DAC treatment) [2, 11]: + | GATA-6 expression (Exp, A = DAC treatment) [2, 11]: + | Inhibin α expression (Exp, A = DAC treatment) [2, 11]: + | TFF1 expression (Exp, A = DAC treatment) [2, 11]: + | TFF2 expression (Exp, A = DAC treatment) [2, 11]: − | TFF3 expression (Exp, A = DAC treatment) [2, 11]: + | Dab2 reactivation following DAC treatment ([2]; gene basally silent): reactivated | Dab2 expression (Exp, A = DAC treatment) [3]: + | GATA-4 expression (Exp, A = DAC treatment) [3]: + | GATA-5 expression (Exp, A = DAC treatment) [3]: + | GATA-6 expression (Exp, A = DAC treatment) [3]: + | TFF1 expression (Exp, A = DAC treatment) [3]: ++ | TFF2 expression (Exp, A = DAC treatment) [3]: + | TFF3 expression (Exp, A = DAC treatment) [3]: + | TFF2 activation by DAC ([4]; HCT116, TFF2 promoter present): readily activated | Dab2 expression (Exp, A = DAC treatment) [4, 12]: + | GATA-4 expression (Exp, A = DAC treatment) [4, 12]: + | GATA-5 expression (Exp, A = DAC treatment) [4, 12]: + | GATA-6 expression (Exp, A = DAC treatment) [4, 12]: + | Inhibin α expression (Exp, A = DAC treatment) [4, 12]: + | TFF1 expression (Exp, A = DAC treatment) [4, 12]: + | TFF2 expression (Exp, A = DAC treatment) [4, 12]: + | TFF3 expression (Exp, A = DAC treatment) [4, 12]: + | Dab2 expression (Exp, A = DAC treatment) [5]: + | GATA-4 expression (Exp, A = DAC treatment) [5]: + | GATA-5 expression (Exp, A = DAC treatment) [5]: + | GATA-6 expression (Exp, A = DAC treatment) [5]: + | Inhibin α expression (Exp, A = DAC treatment) [5]: + | TFF1 expression (Exp, A = DAC treatment) [5]: ++ | TFF2 expression (Exp, A = DAC treatment) [5]: + | TFF3 expression (Exp, A = DAC treatment) [5]: + | Dab2 expression (Exp, A = DAC treatment) [6]: + | GATA-4 expression (Exp, A = DAC treatment) [6]: ++^4) | GATA-5 expression (Exp, A = DAC treatment) [6]: ++ | GATA-6 expression (Exp, A = DAC treatment) [6]: + | Inhibin α expression (Exp, A = DAC treatment) [6]: ++ | TFF1 expression (Exp, A = DAC treatment) [6]: ++ | TFF2 expression (Exp, A = DAC treatment) [6]: + | TFF3 expression (Exp, A = DAC treatment) [6]: ++ | re-expression of each basally silent GATA gene, except GATA-1 ([7]; DAC treatment, RT-PCR): re-expressed | low basal expression of TFF1, TFF3, inhibin α after DAC ([7]; DAC, in many instances): further increased | activation of each downstream gene (TFF1, TFF2, TFF3, inhibin α, Dab2) ([7]; DAC, virtually every cell line in which the gene lacked basal expression): activated | Dab2 expression (Exp, A = DAC treatment) [8]: + | GATA-4 expression (Exp, A = DAC treatment) [8]: + | GATA-5 expression (Exp, A = DAC treatment) [8]: + | GATA-6 expression (Exp, A = DAC treatment) [8]: + | Inhibin α expression (Exp, A = DAC treatment) [8]: ++ | TFF1 expression (Exp, A = DAC treatment) [8]: + | TFF2 expression (Exp, A = DAC treatment) [8]: + | TFF3 expression (Exp, A = DAC treatment) [8]: +

CC(/C=C/C(=O)NO)=C\[C@@H](C)C(=O)c1ccc(N(C)C)cc1 [TSA]
reactivation of the silenced GATA-4 and GATA-5 genes ([9]; TSA alone): failed to reactivate | reactivating expression of the silenced GATA-4 and GATA-5 genes ([9]; TSA applied with a low dose of DAC): synergistic
